Our source for the body weight change values is patent US20240173442A1, “COMBINATION THERAPY” (Hoffmann-La Roche Inc., priority 2021, published 2024).

A short description of series [1]: Protocol 119: body weight, adverse events and toxicity. The class given is in vivo.
The nature of series [2]: Protocol 150: body weight, adverse events and toxicity. The class given is in vivo. The source says:
(§1) Primary solid xenografts were established in each B6-huCEA or huCEACAM5 mouse on study day 0 through subcutaneous (SC) or intrapancreatic injection of carcinoembryonic antigen (CEA)-expressing tumor cells. […] Indications of pain, distress, or discomfort include, but are not limited to, acute body weight (BW) loss, scruffy fur, diarrhea, hunched posture, pale skin, and reluctance to move. Poor SC tumor status (e.g. ulceration, teeth marks, or open wounds) may also prompt euthanasia; in the orthotopic model, abdominal swelling indicates increasing tumor burden, which may prompt euthanasia.
(§2) SC tumor volumes were estimated through manual calipering 3 times per week, calculated according to the formula: volume 0.5× length×width^2. Additional tumor measurements were made as needed depending on the tumor growth rate. In the orthotopic model, the tumor progress was assessed regularly through bioluminescence imaging (BLI). The BW of the animals was measured at least 3 times per week, with additional measurements as needed depending on the health status. Mice whose BW loss exceeded 20% of their initial BW or whose tumor volume reached 3000 mm^3 (Protocols 119, 136, 150) or 2000 mm^3 (Protocol 195) were euthanized immediately.
No mice were euthanized due to acute post-injection BW loss.
Reactions included sluggish behaviour, somnolence, and death in 1/14 mice. […]

Series [3] is described as follows: Protocol 136: body weight, adverse events and toxicity. The class given is in vivo, B6-huCEA mice.
Description: as §1, §2
No mice were euthanized due to acute post-injection BW loss; 1 tumor-free CEA-PRIT mouse was euthanized on day 117 after a sudden decline in overall status. […]

Series [4] is described as follows: Protocol 195: body weight, adverse events and toxicity. Type of series: in vivo.

With `NC(=O)CN1CCN(CC(N)=O)CCN(CC(N)=O)CCN(CC(N)=O)CC1.[212Pb+2]` [^212Pb-DOTAM], the body weight change entry in series [1] is listed as “transient weight loss in irradiated mice”; in series [2], “transient weight loss in irradiated mice”; in series [3] it was “transient weight loss in irradiated mice”; in series [4] it was “did not cause any significant weight loss by itself”.
